Assay results: patent publication US6689806B1, “Indolinone compounds as kinase inhibitors” (Sugen, Inc., priority 1999, dated 2004)
Read-outs that look alike come from different tables or passages of the source.

Legend:
Type in all cases: cell-based
[1] = molecular target: T1, Her2 (Homo sapiens, UniProt P04626); experiment: HER-2 ELISA: EGF receptor-HER2 chimeric receptor assay in whole cells (HER2 kinase); conditions: NIH3T3 cells with EGFR/HER2 chimeric receptor, phosphotyrosine ELISA
T1 construct: fused on or other part: P00533 (Epidermal growth factor receptor)
Summary of the method: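 NIH3T3 cells expressing an EGFR extracellular/HER2 kinase-domain chimera, serum-reduced (0.5%), pretreated 2 h with compound (1% DMSO final), then stimulated 5 min with 100 nM EGF at room temperature. Lysate phosphotyrosine quantified by anti-pTyr ELISA, OD 410 nm; % inhibition after negative-control subtraction.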

[2] = molecular target: T1, Her2; experiment: EGF-induced Her2-driven BrdU incorporation; conditions: 3T3 cells with EGF-R/Her2 chimeric receptor, EGF 2 nM, read-out: BrdU DNA syn. HER2 IC50
Method: (§1) The cellular/biologic assays described herein measure the amount of DNA made in response to activation of a test kinase, which is a general measure of a proliferative response. The general procedure for this assay is as follows: a compound is introduced to cells expressing the test kinase, either naturally or recombinantly, for some period of time after which, if the test kinase is a receptor, a ligand known to activate the receptor is added. After incubation at least overnight, a DNA labeling reagent such as Bromodeoxy-uridine (BrdU) or 3H-thymidine is added. The amount of labeled DNA is detected with either an anti-BrdU antibody or by measuring radioactivity and is compared to control cells not contacted with a test compound.
EGF-Induced Her2-Driven BrdU Incorporation
(8) 3T3 cell line engineered to express a chimeric receptor having the extra-cellular domain of EGF-R and the intra-cellular domain of Her2.
(1) Cells are seeded at 8000 cells/well in DMEM, 10% CS, 2 mM Gln in a 96-well plate. Cells are incubated overnight at 37° C. in 5% CO2.
(§2) (2) After 24 hours, the cells are washed with PBS, and then are serum starved in serum free medium (0% CS DMEM with 0.1% BSA) for 24 hours.
(§3) (3) On day 3, ligand (EGF=2 nM, prepared in DMEM with 0.1% BSA) and test compounds are added to the cells simultaneously. The negative control wells receive serum free DMEM with 0.1% BSA only; the positive control cells receive the ligand (EGF) but no test compound. Test compounds are prepared in serum free DMEM with ligand in a 96 well plate, and serially diluted for 7 test concentrations.
(4) After 20 hours of ligand activation, diluted BrdU labeling reagent (1:100 in DMEM, 0.1% BSA) is added and the cells are incubated with BrdU (final concentration=[…]) for 1.5 hours.
(§4) (10) The absorbance of the samples are measured at 410 nm (in “dual wavelength” mode with a filter reading at 490 nm, as a reference wavelength) on a Dynatech ELISA plate reader.

[3] = molecular target: EGFR (Homo sapiens, UniProt P00533); experiment: EGF-induced BrdU incorporation assay; design: expressed in transfected cells; host or cells: 3T3; conditions: 3T3 cells expressing human EGF-R, EGF 2 nM, read-out: BrdU DNA syn. EGFr IC50
Method: as §1
EGF-Induced BrdU Incorporation Assay
(8) 3T3 cell line genetically engineered to express human EGF-R.
(1) Cells are seeded at 8000 cells/well in 10% CS, 2 mM Gin in DMEM, in a 96 well plate. Cells are incubated overnight at 37° C. in 5% CO2.
as §2
as §3, with “(EGF, 2” for “(EGF=2”, “0.1%/BSA)” for “0.1% BSA)”
(4) After 20 hours of ligand activation, diluted BrdU labeling reagent (1: 100 in DMEM, 0.1% BSA) is added and the cells are incubated with BrdU (final concentration=10 μM) for 1.5 hours.
as §4

T1 sequence (P04626 676-1255 limits assumed): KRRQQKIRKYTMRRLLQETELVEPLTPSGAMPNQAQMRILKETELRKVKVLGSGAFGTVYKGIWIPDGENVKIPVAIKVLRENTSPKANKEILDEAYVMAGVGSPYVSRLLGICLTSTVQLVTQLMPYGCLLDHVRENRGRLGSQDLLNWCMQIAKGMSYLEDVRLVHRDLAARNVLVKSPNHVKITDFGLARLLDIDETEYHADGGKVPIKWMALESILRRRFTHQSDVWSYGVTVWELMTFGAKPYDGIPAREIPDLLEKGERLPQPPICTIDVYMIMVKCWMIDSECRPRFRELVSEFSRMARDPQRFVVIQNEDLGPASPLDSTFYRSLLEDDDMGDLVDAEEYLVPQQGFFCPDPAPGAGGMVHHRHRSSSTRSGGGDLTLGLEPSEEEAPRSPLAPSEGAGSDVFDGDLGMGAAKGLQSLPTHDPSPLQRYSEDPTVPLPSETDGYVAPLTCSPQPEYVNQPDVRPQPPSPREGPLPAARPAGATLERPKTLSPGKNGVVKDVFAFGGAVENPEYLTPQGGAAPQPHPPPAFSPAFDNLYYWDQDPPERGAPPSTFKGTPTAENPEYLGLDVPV
Sequence of EGFR (P00533 25-1210): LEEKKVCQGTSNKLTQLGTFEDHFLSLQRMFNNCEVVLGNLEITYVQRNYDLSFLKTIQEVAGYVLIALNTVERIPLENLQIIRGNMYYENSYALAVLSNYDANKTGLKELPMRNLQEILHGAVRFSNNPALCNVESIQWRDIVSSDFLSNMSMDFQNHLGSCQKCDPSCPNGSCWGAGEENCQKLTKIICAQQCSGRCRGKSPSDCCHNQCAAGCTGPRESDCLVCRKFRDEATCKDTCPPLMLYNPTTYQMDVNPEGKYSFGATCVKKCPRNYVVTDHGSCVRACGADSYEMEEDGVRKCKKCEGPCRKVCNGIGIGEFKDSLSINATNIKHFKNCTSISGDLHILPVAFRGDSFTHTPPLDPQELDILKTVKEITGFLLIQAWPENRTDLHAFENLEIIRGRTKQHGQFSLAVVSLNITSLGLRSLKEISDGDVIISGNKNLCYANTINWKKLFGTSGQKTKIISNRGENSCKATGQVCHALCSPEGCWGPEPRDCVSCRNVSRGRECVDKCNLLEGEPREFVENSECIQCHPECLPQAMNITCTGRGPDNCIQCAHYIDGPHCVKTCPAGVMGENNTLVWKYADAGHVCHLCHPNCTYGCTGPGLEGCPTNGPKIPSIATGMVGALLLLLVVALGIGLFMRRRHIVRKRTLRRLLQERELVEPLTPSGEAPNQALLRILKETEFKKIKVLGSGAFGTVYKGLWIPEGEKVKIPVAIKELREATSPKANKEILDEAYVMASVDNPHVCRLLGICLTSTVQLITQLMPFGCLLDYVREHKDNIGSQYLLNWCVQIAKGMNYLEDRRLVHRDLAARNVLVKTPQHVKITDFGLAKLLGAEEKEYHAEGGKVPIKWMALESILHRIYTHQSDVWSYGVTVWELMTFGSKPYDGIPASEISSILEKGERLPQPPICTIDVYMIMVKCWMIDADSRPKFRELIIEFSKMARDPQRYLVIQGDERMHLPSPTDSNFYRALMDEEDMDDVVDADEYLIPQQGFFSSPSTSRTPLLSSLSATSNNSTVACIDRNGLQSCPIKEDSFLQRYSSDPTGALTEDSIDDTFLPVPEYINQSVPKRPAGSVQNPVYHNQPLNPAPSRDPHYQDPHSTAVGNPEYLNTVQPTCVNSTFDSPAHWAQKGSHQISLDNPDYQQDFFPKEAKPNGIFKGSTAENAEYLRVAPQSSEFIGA

| Compound | IC50 ([1]; Table 7) [µM] | IC50 ([2]; Table 7) [µM] | IC50 ([3]; Table 7) [µM] | IC50 ([1]; Table 5) [µM] | IC50 ([2]; Table 5) [µM] | IC50 ([3]; Table 5) [µM] |
| --- | --- | --- | --- | --- | --- | --- |
| Cc1ccc(O)c(C=C2C(=O)Nc3cccc(CCO)c32)n1 (racemic) [IN-022, 4-(2-Hydroxy-ethyl)-3-(3-hydroxy-6-methyl-pyridin-2-ylmethylene)-1,3-dihydro-indol-2-one] | > 100 | > 50 | > 50 |  |  |  |
| COc1ccc(CC2C(=O)Nc3ccc(F)cc32)cc1C1CCCC1 (stereo not drawn) [AAI-5, 3-(3-Cyclopentyl-4-methoxybenzyl)-5-fluoro-1,3-dihydroindol-2-one] |  |  |  | 16.4 | 32.7 | 30 |
| COc1ccc(CC2C(=O)Nc3cc(NC(C)=O)ccc32)cc1-c1cccs1 (stereo not drawn) [AAI-6, N-[3-(4-Methoxy-3-thiophen-2-ylbenzyl)-2-oxo-2,3-dihydro-1H-indol-6-yl]-acetamide] |  |  |  | > 100 | 27.3 | > 50 |
| CC(=O)Nc1ccc2c(c1)NC(=O)C2Cc1ccc(OCCN2CCOCC2)c(C2CCCCC2)c1 (stereo not drawn) [AAI-7, N-{3-[3-Cyclohexyl-4-(2-morpholin-4-ylethoxy)-benzyl]-2-oxo-2,3-dihydro-1H-indol-6-yl}-acetamide] |  |  |  | > 100 | 6.8 | 28.1 |
| COc1ccc(CC2C(=O)Nc3ccc(CCN4CCOCC4)cc32)cc1-c1ccsc1 (stereo not drawn) [AAI-8, 3-(4-Methoxy-3-thiophen-3-ylbenzyl)-5-(2-morpholin-4-ylethyl)-1,3-dihydroindol-2-one] |  |  |  | > 100 | 11.5 | > 50 |
| COc1c(C(C)C)cc(CC2C(=O)Nc3ccccc32)cc1C(C)C (stereo not drawn) [AAI-10, 3-(3,5-Diisopropyl-4-methoxybenzyl)-1,3-dihydroindol-2-one] |  |  |  | 22.2 | 34.1 | > 50 |
| O=C1Nc2ccc(F)cc2C1Cc1ccc(O)c(C2CCCC2)c1 (stereo not drawn) [AAI-11, 3-(3-Cyclopentyl-4-hydroxybenzyl)-5-fluoro-1,3-dihydroindol-2-one] |  |  |  | > 100 | > 50 | > 50 |
| COc1cccc(-c2ccc3c(c2)NC(=O)C3Cc2ccccc2O)c1 (stereo not drawn) [AAI-13, 3-(2-Hydroxybenzyl)-6-(3-methoxyphenyl)-1,3-dihydroindol-2-one] |  |  |  | > 100 | > 50 | > 50 |
| Cc1cccc2c1C(Cc1ccc3[nH]ccc3c1)C(=O)N2 (stereo not drawn) [AAI-16, 3-(1H-Indol-5-ylmethyl)-4-methyl-1,3-dihydroindol-2-one] |  |  |  | > 100 | > 50 | > 50 |
| O=C1Nc2ccccc2C1Cc1ccc2[nH]ccc2c1 (stereo not drawn) [AAI-17, 3-(1H-Indol-5-ylmethyl)-1,3-dihydroindol-2-one] |  |  |  | > 100 | > 50 | > 50 |
| Cc1[nH]c(CC2C(=O)Nc3ccccc32)c(C)c1CCCN(C)C (stereo not drawn) [AAI-18, 3-[4-(3-Dimethylaminopropyl)-3,5-dimethyl-1H-pyrrol-2-ylmethyl]-1,3-dihydroindol-2-one] |  |  |  | 28.5 | > 50 | > 50 |
| COc1ccccc1-c1ccc2c(c1)NC(=O)C2Cc1[nH]c(C)c(CCCN(C)C)c1C (stereo not drawn) [AAI-20, 3-[4-(3-Dimethylamino-propyl)-3,5-dimethyl-1H-pyrrol-2-ylmethyl]-6-(2-methoxy-phenyl)-1,3-dihydro-indol-2-one] |  |  |  | 20.9 | 29.2 | 38.5 |
| COc1cccc(-c2ccc3c(c2)NC(=O)C3Cc2[nH]c(C)c(CCCN(C)C)c2C)c1 (stereo not drawn) [AAI-21, 3-[4-(3-Dimethylaminopropyl)-3,5-dimethyl-1H-pyrrol-2-ylmethyl]-6-(3-methoxyphenyl)-1,3-dihydroindol-2-one] |  |  |  | 52.9 | > 50 | 27.8 |
